According to US20240201204A1, “Biomarker and Druggable Target of Neurodegeneration” (University Hospitals Cleveland Medical Center, priority 2020, published 2024):

How the values were obtained:
GAPDH = biological target: T1, GAPDH (Mus musculus, UniProt P16858); experiment: S-nitrosylation of GAPDH after TBI (SNO-resin assisted capture, western blot); assay type: in vivo
T1 construct: from tissue; host or cells: cerebral cortex of C57BL/6J mice after TBI
Protocol: Drug preparation and administration: CGP3466B (Sigma-Aldrich, SML1941) was dissolved in DMSO and then diluted in sterile saline. The final working stock was 0.0014 mg/ml for administering the 0.014 mg/kg dose. Intraperitoneal administration of CGP3466B was initiated 15 min or 24 h after injury, and tissues were harvested 6 h (for SNO-GAPDH, SNO-SIRT1 measurement) or 2 weeks (for ac-tau measurement) later, respectively. Salsalate (AdipoGen, AG-CR1-3574) was dissolved in DMSO and then diluted in sterile PBS. The final working stocks were as follows: 2.5 mg/ml (25 mg/kg dose), 1 mg/ml (10 mg/kg dose), 0.5 mg/ml (5 mg/kg dose). Daily intraperitoneal administration of salsalate was initiated 24 hr after injury and continued throughout behavioral testing. P7C3-A20 and FK866 (Sigma-Aldrich, F8557) were first dissolved in 1 vol of DMSO, followed by addition of 4 vol of Kolliphor and vigorously vortexing. The solution was then diluted with 30 vol of filtered 5% dextrose (pH 7.0). EX527 (Selleckchem, S1541) was dissolved in 1% DMSO+30% polyethylene glycol+1% Tween 80. Daily intraperitoneal administration of P7C3-A20 was initiated 24 hr after poly-traumatic brain injury. EX527 (10 mg/kg) was administer once a day and FK866 was treated twice per day, with the first injection given at the same time as P7C3-A20 (20 mg/kg) and the second injection given 6 h later (LoCoco et al., 2017 eLife). Diflunisal was first dissolved in 1 vol of DMSO, followed by addition of 2 vol of Kolliphor and vigorously vortexing. […]
SNO-resin assisted capture (SNO-RAC): SNO-RAC was performed as described previously (Forrester, 2009). […] After two times centrifugation (20,000 g at 4° C. for 20 min), protein concentration of supernatants was determined using Coomassie protein assay (Thermo Scientific, #1856210). […] SNO-proteins were then eluted with 2× Laemmli Sample Buffer (Bio-Rad Laboratories, Inc., #1610737) with 10% beta-mercaptoethanol (Bio-Rad Laboratories, Inc., #1610710) and analyzed by SDS-PAGE and immunoblotting.

p300/CBP = p300/CBP activity after TBI (acetylation of p300/CBP, H2AK5, H3K18; western blot); assay type: in vivo, mouse; settings: vs. TBI+Vehicle
Protocol: Drug preparation and administration: CGP3466B (Sigma-Aldrich, SML1941) was dissolved in DMSO and then diluted in sterile saline. The final working stock was 0.0014 mg/ml for administering the 0.014 mg/kg dose. Intraperitoneal administration of CGP3466B was initiated 15 min or 24 h after injury, and tissues were harvested 6 h (for SNO-GAPDH, SNO-SIRT1 measurement) or 2 weeks (for ac-tau measurement) later, respectively. Salsalate (AdipoGen, AG-CR1-3574) was dissolved in DMSO and then diluted in sterile PBS. The final working stocks were as follows: 2.5 mg/ml (25 mg/kg dose), 1 mg/ml (10 mg/kg dose), 0.5 mg/ml (5 mg/kg dose). Daily intraperitoneal administration of salsalate was initiated 24 hr after injury and continued throughout behavioral testing. P7C3-A20 and FK866 (Sigma-Aldrich, F8557) were first dissolved in 1 vol of DMSO, followed by addition of 4 vol of Kolliphor and vigorously vortexing. The solution was then diluted with 30 vol of filtered 5% dextrose (pH 7.0). EX527 (Selleckchem, S1541) was dissolved in 1% DMSO+30% polyethylene glycol+1% Tween 80. Daily intraperitoneal administration of P7C3-A20 was initiated 24 hr after poly-traumatic brain injury. EX527 (10 mg/kg) was administer once a day and FK866 was treated twice per day, with the first injection given at the same time as P7C3-A20 (20 mg/kg) and the second injection given 6 h later (LoCoco et al., 2017 eLife). Diflunisal was first dissolved in 1 vol of DMSO, followed by addition of 2 vol of Kolliphor and vigorously vortexing. The solution was then diluted with 7 vol of saline to the appropriate concentration for administration at 25, 50, or 100 mg/kg.
The pressure in the side not containing the mouse was increased to cause membrane rupture at 20 pounds per square inch (PSI), which generates an about 1-2 ms jet airflow of 137.9+/−13.79 kPa that passes through the animal's head. The head remains untethered in a padded holder, while the body is fully shielded by a metal tube. The jet of air produced upon membrane rupture provides a concussive injury, which is followed by acceleration/deceleration of the head and then exposure to the ensuing blast wave within an enclosed space.
Western blotting: Western blotting was performed as described previously (Min et al., 2010), with the 9AB antibody against acetylated-tau generated in the Gan laboratory. […] Lysates were centrifuged at 170,000 g at 4° C. for 15 min and at 18,000 g at 4° C. for 10 min, after which protein concentrations of supernatants were measured by bicinchoninic acid assay (Thermo Scientific, A53225). […]

T1 sequence (P16858 whole entry): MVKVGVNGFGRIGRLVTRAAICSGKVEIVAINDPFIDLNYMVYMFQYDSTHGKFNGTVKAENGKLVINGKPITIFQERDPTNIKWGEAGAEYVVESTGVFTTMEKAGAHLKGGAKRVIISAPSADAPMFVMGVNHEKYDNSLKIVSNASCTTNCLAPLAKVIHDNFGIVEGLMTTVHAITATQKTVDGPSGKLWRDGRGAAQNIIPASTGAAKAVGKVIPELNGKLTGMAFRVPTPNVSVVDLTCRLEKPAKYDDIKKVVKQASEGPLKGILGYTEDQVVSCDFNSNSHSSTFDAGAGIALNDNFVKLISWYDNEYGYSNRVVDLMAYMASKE

SMILES | S-nitrosylation of GAPDH (GAPDH; CGP3466B 0.014 mg/kg IP initiated 15 min after TBI, cerebral cortex harvested 6 h later, vs. TBI+Vehicle) | ac-p300/CBP in cerebral cortex (p300/CBP; CGP3466B 0.014 mg/kg, after TBI) | S-nitrosylation of GAPDH (GAPDH; 25 mg/kg salsalate after TBI) | ac-H2AK5 levels in cerebral cortex and hippocampus (p300/CBP; low-dose salsalate after TBI) | ac-H3K18 levels in cerebral cortex and hippocampus (p300/CBP; low-dose salsalate after TBI) | acetylation of p300/CBP (p300/CBP; low-dose salsalate after TBI)
C#CCN(C)CC1=Cc2ccccc2Oc2ccccc21.O=C(O)/C=C\C(=O)O [CGP3466B] | inhibits S-nitrosylation of GAPDH and Sirt1 | reduces ac-p300/CBP in cerebral cortex after TBI |  |  |  | 
O=C(Oc1ccccc1C(=O)O)c1ccccc1O [salsalate] |  |  | S-nitrosylation of GAPDH is not affected | significantly reduced levels of ac-H2AK5 and ac-H3K18 | significantly reduced levels of ac-H2AK5 and ac-H3K18 | acetylation of p300/CBP was also significantly reduced
